Where two headings read alike, the source gives them in different places.
System: human sebocytes
Test: Sebum suppression in cultured human sebocytes (14C-acetate incorporation), alone or with retinol
Format: cell-based
Conditions: for sebum suppressive activity (in words): agent alone, summary of Tables 1-6
Description: Compounds A through E were tested for their potential to suppress sebum expression, alone or in the presence of a retinoid.
Secondary cultures of human sebocytes obtained from an adult […] were grown in 48-well tissue culture plates (Costar Corp.; Cambridge, MA) or 96-well tissue culture plates (Packard Co.; Meriden, CT) until confluent.
Sebocyte growth medium consisted of Clonetics Keratinocyte Basal Medium (KBM) supplemented with 14 μg/ml bovine pituitary extract, 0.4 μg/ml hydrocortisone, 5 μg/ml insulin, […], 1.2 ×10^-10 M cholera toxin, 100 units/ml penicillin, and 100 μg/ml streptomycin.
All cultures were incubated at 37° C. in the presence of 7.5% CO2. Medium was changed three times per week.
On the day of experimentation, the growth medium was removed and the sebocytes washed three times with sterile Dulbecco's Modified Eagle Medium (DMEM; phenol red free). Fresh DMEM was added to each sample (duplicates, triplicates, or quadruplicates depending on the experiment) with 5 microliter of test agent solubilized in ethanol either alone or in the presence of one or 10 micromolar of retinol. Controls consisted of addition of ethanol alone, retinol alone, or phenol red, which has estrogen-like activity and is included as a positive control.
Each plate was returned to the incubator for 20 hours followed by the addition of 14C-acetate buffer (5 mM final concentration, 56 mCi/mmol specific activity). Sebocytes were returned to the incubator for four hours after which each culture was rinsed three times with phosphate buffered saline to remove unbound label. Radioactive label remaining in the sebocytes was harvested and counted using a Beckman scintillation counter.

## COc1ccc(OC)c(C(C)NC/C=C(\C)CCC=C(C)C)c1 (centres unmarked) [Compound C]
96 Well Plate (n = 2), 10 μM test agent + 1 μM Retinol
  % of Control: 45.2%
96 Well Plate (n = 2), 10 μM test agent alone
  % of Control: 72.3%
96 Well Plate (n = 2), 50 μM test agent + 1 μM Retinol
  % of Control: 0.3%
96 Well Plate (n = 2), 50 μM test agent alone
  % of Control: 34.2%
  sebum suppressive activity (in words): had sebum suppressive activity
In the presence of a retinoid (retinol)
  sebum suppressive activity when combined with retinol / a retinoid (in words): improved sebum suppressive activity

## CC1=C(/C=C/C(C)=C/C=C/C(C)=C/CO)C(C)(C)CCC1 [Retinol, reference compound]
Homo sapiens, Experiment A, 10 μM test agent alone, read-out: % of Control
  activity at 10 µM: 98.3%
  sebum suppressive activity (in words): inactive

## O=S1(=O)OC(c2ccc(O)cc2)(c2ccc(O)cc2)c2ccccc21 [Phenol Red, reference compound]
Homo sapiens, Experiment B (n = 3), 28 μM alone, read-out: % of Control
  activity at 28 µM: 86.4%
Homo sapiens, Experiment B (n = 3), 280 μM alone, read-out: % of Control
  activity at 280 µM: 52.2%
Table 3 (n = 4), 28 μM alone
  % Reduction: 74.7%

## CC1=C(/C=C/C(C)=C/C=C/C(C)=C/C=O)C(C)(C)CCC1 [Retinal, reference compound]
Homo sapiens, Experiment B (n = 3), 1 μM test agent alone, read-out: % of Control
  activity at 1 µM: 104%
Homo sapiens, Experiment B (n = 3), 10 μM test agent alone, read-out: % of Control
  activity at 10 µM: 101%

## CSc1ccc(NC(C)CC(c2ccccc2)c2c(O)c3ccccc3oc2=O)cc1 (centres unmarked) [Compound A]
Experiment A, 1 μM test agent + 10 μM Retinol
  % of Control: 94.3%
Experiment A, 1 μM test agent alone
  % of Control: 93.8%
Experiment A, 10 μM test agent + 10 μM Retinol
  % of Control: 88.6%
Experiment A, 10 μM test agent alone
  % of Control: 78.1%
Experiment A, 100 μM test agent + 10 μM Retinol
  % of Control: 6.2%
Experiment A, 100 μM test agent alone
  % of Control: 12.5%
Experiment B (n = 3), 1 μM test agent + 1 μM Retinol
  % of Control: 93.3%
Experiment B (n = 3), 1 μM test agent + 10 μM Retinol
  % of Control: 85.4%
Experiment B (n = 3), 1 μM test agent alone
  % of Control: 102.1%
Experiment B (n = 3), 10 μM test agent + 1 μM Retinol
  % of Control: 80.2%
Experiment B (n = 3), 10 μM test agent + 10 μM Retinol
  % of Control: 78.6%
Experiment B (n = 3), 10 μM test agent alone
  % of Control: 89.4%
Experiment B (n = 3), 100 μM test agent + 1 μM Retinol
  % of Control: 19.7%
Experiment B (n = 3), 100 μM test agent + 10 μM Retinol
  % of Control: 26.5%
Experiment B (n = 3), 100 μM test agent alone
  % of Control: 23.5%
  sebum suppressive activity (in words): had sebum suppressive activity

From US20020025331A1, “Cosmetic compositions containing substituted amine derivatives” (priority 2000, published 2002)
